One experiment has as its system CEM-VLB. Briefly: Cytotoxicity against human CEM-VLB cells assessed as reduction in cell viability incubated for 72 hrs by XTT assay. In kind it is functional, cell-based. (In general: Tetrazolium assays rely on reduction of a dye to a coloured formazan, in cell work by metabolically active cells.)
The next experiment concerns CCRF-CEM. The experiment in a line: Cytotoxicity against human CCRF-CEM cells assessed as reduction in cell viability incubated for 72 hrs by XTT assay. In kind it is functional, cell-based.
The subject of the next experiment is NCI-H1650. The experiment in a line: Cytotoxicity against human NCI-H1650 cells assessed as reduction in cell viability incubated for 72 hrs by XTT assay. Type of experiment: functional, cell-based. The following applies: NCI-H1650, 72 h.
A further experiment relates to NCI-H460. The experiment in a line: Cytotoxicity against human NCI-H460 cells assessed as reduction in cell viability incubated for 72 hrs by XTT assay. In kind it is functional, cell-based. The following applies: NCI-H460, 72 h.
Experiment [1] is described as follows: Cytotoxicity against human PacaS1 cells assessed as reduction in cell viability incubated for 72 hrs by XTT assay. The following applies: PacaS1, 72 h. In kind it is functional, cell-based.
Another experiment concerns HCT-116. Briefly: Cytotoxicity against human HCT-116 cells assessed as reduction in cell viability incubated for 72 hrs by XTT assay. Type of experiment: functional, cell-based. The following applies: HCT-116, 72 h.
For the next experiment, the system named is dsDNA. The experiment in a line: Induction of pBR322 DNA interstand crosslink at 1 to 20 uM incubated for 2 hrs by agarose gel electrophoresis assay. The following applies: dose 1-20 µM.

Activity calls are given as the source filed them. No cut-off for these calls is given here.

Usually IC50 stands for the concentration needed to halve the response being measured. For `OCc1c(CO)c(-c2ccc(F)cc2)n2c1Cc1c(c3ccccc3c3ccccc13)C2`, the figures for the half-inhibitory concentration (IC50) in the experiment on CEM-VLB and with CCRF-CEM were 6.14 µM and 6.5 µM, respectively.
As to `OCc1c(CO)c2c3ccccc3c3ccccc3n2c1-c1ccccc1`, the IC50 in the experiment on CEM-VLB was determined as 10.9 µM; in the experiment on NCI-H1650, 39 µM; with CCRF-CEM it was 9.82 µM; in the experiment with NCI-H460 it was 37.5 µM; in experiment [1] it was 36.7 µM; in the experiment with HCT-116, 73.3 µM.
As to `CCNC(=O)OCc1c(COC(=O)NCC)c2c3ccccc3c3ccccc3n2c1-c1ccccc1`, the IC50 in the experiment with CEM-VLB turned out to be 2.48 µM; with NCI-H1650, 18.2 µM; in the experiment with CCRF-CEM, 4.09 µM; with NCI-H460 it was 9.03 µM; in experiment [1] it was 11.1 µM; in the experiment with HCT-116, 21 µM.
As for `CCNC(=O)OCc1c(COC(=O)NCC)c2c3ccccc3c3ccccc3n2c1-c1ccc(OC)cc1`, the half-inhibitory concentration (IC50) worked out at 2.85 µM with CEM-VLB and 3.01 µM in the experiment on CCRF-CEM.
As for `CC(C)NC(=O)OCc1c(COC(=O)NC(C)C)c2c3ccccc3c3ccccc3n2c1-c1ccc(F)cc1`, the figures for the half-maximal inhibitory concentration (IC50) in the experiment on CEM-VLB and with CCRF-CEM were 3.17 µM and 4.1 µM, respectively.
For the compound `CCc1c(CO)c(CO)c2c3ccccc3c3ccccc3n12`, the IC50 in the experiment with CEM-VLB was found to be 2.89 µM; with NCI-H1650, 13.6 µM; in the experiment on CCRF-CEM, 7.39 µM; in the experiment with NCI-H460 it was 9.48 µM; in experiment [1] it was 6.2 µM; in the experiment on HCT-116, 11.5 µM.
With `COc1ccc(-c2c(COC(=O)NC(C)C)c(COC(=O)NC(C)C)c3c4ccccc4c4ccccc4n23)cc1`, the concentration for half-maximal inhibition (IC50) was found to be 2.76 µM in the experiment on CEM-VLB and 2.19 µM in the experiment on CCRF-CEM.
In the case of `COc1ccc(-c2c(CO)c(CO)c3c4ccccc4c4ccccc4n23)cc1`, the IC50 in the experiment with CEM-VLB stood at 4.77 µM; in the experiment with CCRF-CEM, 6.34 µM.
Consider `CC(C)NC(=O)OCc1c(COC(=O)NC(C)C)c2c3ccccc3c3ccccc3n2c1-c1ccccc1`, for which the IC50 in the experiment with CEM-VLB is 4.48 µM; in the experiment with NCI-H1650, 16.3 µM; in the experiment with CCRF-CEM, 3.15 µM; with NCI-H460, 14.9 µM; in experiment [1] it was 13.8 µM; in the experiment on HCT-116 it was 16.2 µM.
As for `COc1ccc(-c2c(CO)c(CO)c3n2Cc2c(c4ccccc4c4ccccc24)C3)cc1`, the concentration for half-maximal inhibition (IC50) in the experiment with CEM-VLB came out at 2.83 µM; in the experiment with CCRF-CEM, 2.99 µM.
`CC(C)NC(=O)OCc1cn2c3ccccc3c3ccccc3c2c1COC(=O)NC(C)C`: the concentration for half-maximal inhibition (IC50) in the experiment with CEM-VLB worked out at 2.21 µM; with NCI-H1650 it was 9.62 µM; with CCRF-CEM it was 1.75 µM; in the experiment with NCI-H460, 7.2 µM; in experiment [1], 15.3 µM; with HCT-116 it was 2.27 µM.
Turning to `CCNC(=O)OCc1c(COC(=O)NCC)c2c3ccccc3c3ccccc3n2c1-c1ccc(F)cc1`, the half-inhibitory concentration (IC50) in the experiment with CEM-VLB came to 3.4 µM; in the experiment on CCRF-CEM it was 3.41 µM.
With `Cc1c(CO)c(CO)c2c3ccccc3c3ccccc3n12`, the IC50 in the experiment with CEM-VLB came to 0.55 µM; with NCI-H1650, 4.46 µM; with CCRF-CEM, 0.91 µM; in the experiment with NCI-H460 it was 2.87 µM; in experiment [1], 3.5 µM; in the experiment with HCT-116, 1.88 µM. Further, the result with dsDNA was Active.
Consider `CCNC(=O)OCc1cn2c3ccccc3c3ccccc3c2c1COC(=O)NCC`, for which the IC50 in the experiment with CEM-VLB was 1.24 µM; in the experiment on NCI-H1650 it was 5.73 µM; with CCRF-CEM, 1.28 µM; in the experiment on NCI-H460, 4.25 µM; in experiment [1], 4.41 µM; in the experiment with HCT-116, 1.8 µM.
`OCc1c(CO)c(-c2ccccc2)n2c1Cc1c(c3ccccc3c3ccccc13)C2`: the IC50 was found to be 3.66 µM with CEM-VLB; 7.95 µM in the experiment with NCI-H1650; 3.21 µM in the experiment on CCRF-CEM; 2.34 µM in the experiment with NCI-H460; 4.45 µM in experiment [1]; 5.99 µM in the experiment with HCT-116.
For the compound `CC[C@]1(O)C[C@@H]2CN(CCc3c([nH]c4ccccc34)[C@@](C(=O)OC)(c3cc4c(cc3OC)N(C)[C@H]3[C@@](O)(C(=O)OC)[C@H](OC(C)=O)[C@]5(CC)C=CCN6CC[C@]43[C@@H]65)C2)C1` [VINBLASTINE], the values for the IC50 in the experiment on CEM-VLB and with CCRF-CEM were 0.393 µM and 0.00141 µM, respectively.
Turning to `CCNC(=O)OCc1c(COC(=O)NCC)c2c3ccccc3c3ccccc3n2c1CC`, the half-inhibitory concentration (IC50) is 1.68 µM in the experiment with CEM-VLB; 10.1 µM in the experiment on NCI-H1650; 1.89 µM in the experiment with CCRF-CEM; 9.09 µM in the experiment with NCI-H460; 5.05 µM in experiment [1]; 8.53 µM with HCT-116.
Regarding `Cc1c(COC(=O)NC(C)C)c(COC(=O)NC(C)C)c2c3ccccc3c3ccccc3n12`, the IC50 in the experiment on CEM-VLB was 0.34 µM; with NCI-H1650 it was 5.17 µM; in the experiment with CCRF-CEM, 0.35 µM; with NCI-H460, 1.19 µM; in experiment [1] it was 1.8 µM; with HCT-116, 2.12 µM.
As to `CCc1c(CO)c(CO)c2n1Cc1c(c3ccccc3c3ccccc13)C2`, the half-maximal inhibitory concentration (IC50) worked out at 1.08 µM in the experiment on CEM-VLB; 2.39 µM in the experiment with NCI-H1650; 1.38 µM in the experiment with CCRF-CEM; 1.33 µM in the experiment on NCI-H460; 2.66 µM in experiment [1]; 2.7 µM in the experiment on HCT-116. The outcome in the experiment with dsDNA was Active.
For the compound `OCc1c(CO)c2c3ccccc3c3ccccc3n2c1-c1ccc(F)cc1`, the half-inhibitory concentration (IC50) in the experiment on CEM-VLB was found to be 6.44 µM; in the experiment with CCRF-CEM, 8.09 µM.
Take `Cc1c(CO)c(CO)c2n1Cc1c(c3ccccc3c3ccccc13)C2`: the IC50 with CEM-VLB was found to be 0.34 µM; with NCI-H1650, 2.69 µM; in the experiment on CCRF-CEM it was 0.36 µM; in the experiment on NCI-H460, 0.18 µM; in experiment [1], 1.8 µM; in the experiment with HCT-116, 1.57 µM. The outcome in the experiment with dsDNA was Active.
For the compound `CCNC(=O)OCc1c(COC(=O)NCC)c2c3ccccc3c3ccccc3n2c1C`, the IC50 was 0.37 µM in the experiment on CEM-VLB; 4.47 µM with NCI-H1650; 0.37 µM in the experiment on CCRF-CEM; 1.2 µM with NCI-H460; 2.26 µM in experiment [1]; 2.1 µM in the experiment on HCT-116.
Regarding `CCc1c(COC(=O)NC(C)C)c(COC(=O)NC(C)C)c2c3ccccc3c3ccccc3n12`, the half-inhibitory concentration (IC50) came out at 1.55 µM with CEM-VLB; 10.2 µM in the experiment with NCI-H1650; 1.89 µM in the experiment on CCRF-CEM; 4.98 µM in the experiment with NCI-H460; 4.58 µM in experiment [1]; 16.2 µM in the experiment on HCT-116.

(Values after ChEMBL document CHEMBL4765365, “Design, synthesis and antitumour evaluation of pyrrolo[1,2-f]-phenanthridine and dibenzo[f,h]pyrrolo[1,2-b]isoquinoline derivatives” (Eur J Med Chem, 2020).)
